Key:
[1] = target: T1, hCB2R (Homo sapiens, UniProt P34972); assay: CB2R competitive radioligand binding assay; conditions: selectivity ratio
[2] = target: h-CB2R (Homo sapiens, UniProt P34972); conditions: classification from β-arrestin 2 (and cAMP) assays
[3] = target: T1, hCB2R; assay: forskolin-stimulated cAMP assay; format: cell-based; conditions: for cAMP (CB2R) EC50/IC50 (nM): EC50: agonist mode, inhibition of forskolin (10 μM) mediated cAMP production
[4] = solubility under the cAMP assay test conditions; format: physicochemical; conditions: functional cAMP assay conditions

T1 sequence (P34972 whole entry): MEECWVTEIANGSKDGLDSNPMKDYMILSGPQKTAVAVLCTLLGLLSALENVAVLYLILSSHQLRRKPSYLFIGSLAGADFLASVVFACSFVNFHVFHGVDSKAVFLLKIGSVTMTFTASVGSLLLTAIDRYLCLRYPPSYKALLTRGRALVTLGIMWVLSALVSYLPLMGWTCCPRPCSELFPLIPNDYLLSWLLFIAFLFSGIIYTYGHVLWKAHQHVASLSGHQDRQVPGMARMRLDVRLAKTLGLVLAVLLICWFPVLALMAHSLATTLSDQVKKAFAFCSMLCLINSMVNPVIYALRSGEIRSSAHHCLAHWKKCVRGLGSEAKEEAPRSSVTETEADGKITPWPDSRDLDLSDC
h-CB2R, sequence (P34972 whole entry): as above

SMILES	Ki(CB1)/Ki(CB2) [1]	functional activity at CB2R [2]	other results
CC1CCC(NC(=O)c2cc3cccnc3n(CCCCC(=O)O)c2=O)CC1 (centres unmarked) [Compound 13, 5-(3-(4-Methylcyclohexylcarbamoyl)-2-oxo-1,8-naphthyridin-1(2H)-yl)pentanoic Acid]	>7	–	–
CCOC(=O)CCn1c(=O)c(C(=O)NC2CCC(C)CC2)cc2cccnc21 (centres unmarked) [Compound 8, Ethyl 3-(3-(4-Methylcyclohexylcarbamoyl)-2-oxo-1,8-naphthyridin-1(2H)-yl)propanoate]	>57	–	–
CC1CCC(NC(=O)c2cc3cc(Br)cnc3n(CCN3CCOCC3)c2=O)CC1 (centres unmarked) [Compound 18, 6-Bromo-N-(4-methylcyclohexyl)-1-(2-morpholinoethyl)-2-oxo-1,2-dihydro-1,8-naphthyridine-3-carboxamide]	–	inverse agonists as well as antagonists	cAMP (CB2R) EC50/IC50 (nM): IC50 ([3]; antagonist mode, inhibition of response to WIN-55,212-2 (30 nM) with forskolin): 59.6 nM
CC1CCC(NC(=O)c2cc3cccnc3n(Cc3ccc(F)cc3)c2=O)CC1 (centres unmarked) [A2]	–	agonists	cAMP (CB2R) EC50/IC50 (nM): EC50 [3]: 29.6 nM
CC1CCC(NC(=O)c2cc3cccnc3n(CCO)c2=O)CC1 (centres unmarked) [Compound 3, 1-(2-Hydroxyethyl)-N-(4-methylcyclohexyl)-2-oxo-1,2-dihydro-1,8-naphthyridine-3-carboxamide]	>5	–	–
COc1ccc(-c2cnc3c(c2)cc(C(=O)NC2CCC(C)CC2)c(=O)n3CCN2CCOCC2)cc1 (centres unmarked) [Compound 23, 6-(4-Methoxyphenyl)-N-(4-methylcyclohexyl)-1-(2-morpholinoethyl)-2-oxo-1,2-dihydro-1,8-naphthyridine-3-carboxamide]	>6802	inverse agonists as well as antagonists	solubility under the test conditions [4]: insoluble
CCOC(=O)CCCn1c(=O)c(C(=O)NC2CCC(C)CC2)cc2cccnc21 (centres unmarked) [Compound 9, Ethyl 4-(3-(4-Methylcyclohexylcarbamoyl)-2-oxo-1,8-naphthyridin-1(2H)-yl)butanoate]	>160	–	–
CC1CCC(NC(=O)c2cc3cccnc3n(CCCCCO)c2=O)CC1 (centres unmarked) [Compound 6, 1-(5-Hydroxypentyl)-N-(4-methylcyclohexyl)-2-oxo-1,2-dihydro-1,8-naphthyridine-3-carboxamide]	>2778	–	–
CC1CCC(NC(=O)c2cc3cccnc3n(CCCO)c2=O)CC1 (centres unmarked) [Compound 4, 1-(3-Hydroxypropyl)-N-(4-methylcyclohexyl)-2-oxo-1,2-dihydro-1,8-naphthyridine-3-carboxamide]	>77	–	–
CC1CCC(NC(=O)c2cc3cc(Br)cnc3n(Cc3ccc(F)cc3)c2=O)CC1 (centres unmarked) [Compound 17, 6-Bromo-1-(4-fluorobenzyl)-N-(4-methylcyclohexyl)-2-oxo-1,2-dihydro-1,8-naphthyridine-3-carboxamide]	–	inverse agonists as well as antagonists	solubility under the test conditions [4]: insoluble
CC1CCC(NC(=O)c2cc3cccnc3n(CCCC(=O)O)c2=O)CC1 (centres unmarked) [Compound 12, 4-(3-(4-Methylcyclohexylcarbamoyl)-2-oxo-1,8-naphthyridin-1(2H)-yl)butanoic Acid]	>4	–	–
C[C@H]1CC[C@@H](NC(=O)c2cc3cc(-c4ccco4)cnc3n(Cc3ccc(F)cc3)c2=O)CC1 [Compound 22-cis, cis-1-(4-Fluorobenzyl)-6-(furan-2-yl)-N-(4-methylcyclohexyl)-2-oxo-1,2-dihydro-1,8-naphthyridine-3-carboxamide]	15 022	–	–
CC1CCC(NC(=O)c2cc3cccnc3n(CCCCF)c2=O)CC1 (centres unmarked) [Compound 14, 1-(4-Fluorobutyl)-1,2-dihydro-N-(4-methylcyclohexyl)-2-oxo-1,8-naphthyridine-3-carboxamide]	–	agonists	cAMP (CB2R) EC50/IC50 (nM): EC50 [3]: 20.6 nM
COC(=O)CCCCn1c(=O)c(C(=O)NC2CCC(C)CC2)cc2cccnc21 (centres unmarked) [Compound 10, Methyl 5-(3-(4-Methylcyclohexylcarbamoyl)-2-oxo-1,8-naphthyridin-1(2H)-yl)pentanoate]	>369	–	–
CC1CCC(NC(=O)c2cc3cccnc3n(CCN3CCOCC3)c2=O)CC1 (centres unmarked) [A1]	–	agonists	cAMP (CB2R) EC50/IC50 (nM): EC50 [3]: 28.0 nM
C[C@H]1CC[C@H](NC(=O)c2cc3cc(-c4ccco4)cnc3n(Cc3ccc(F)cc3)c2=O)CC1 [Compound 22-trans, trans-1-(4-Fluorobenzyl)-6-(furan-2-yl)-N-(4-methylcyclohexyl)-2-oxo-1,2-dihydro-1,8-naphthyridine-3-carboxamide]	>106	–	–
CC1CCC(NC(=O)c2cc3cccnc3n(CCCCO)c2=O)CC1 (centres unmarked) [Compound 5, 1-(4-Hydroxybutyl)-N-(4-methylcyclohexyl)-2-oxo-1,2-dihydro-1,8-naphthyridine-3-carboxamide]	>187	agonists	solubility under the test conditions [4]: insoluble
CC1CCC(NC(=O)c2cc3cccnc3n(CCC(=O)O)c2=O)CC1 (centres unmarked) [Compound 11, 3-(3-(4-Methylcyclohexylcarbamoyl)-2-oxo-1,8-naphthyridin-1(2H)-yl)propanoic Acid]	>7	–	–
CC1CCC(NC(=O)c2cc3cc(-c4ccc(F)cc4)cnc3n(Cc3ccc(F)cc3)c2=O)CC1 (centres unmarked) [Compound 21, 1-(4-Fluorobenzyl)-6-(4-fluorophenyl)-N-(4-methyl-cyclohexyl)-2-oxo-1,2-dihydro-1,8-naphthyridine-3-carboxamide]	>4608	–	–
CC1CCC(NC(=O)c2cc3cccnc3n(CCCCCCO)c2=O)CC1 (centres unmarked) [Compound 7, 1-(6-Hydroxyhexyl)-N-(4-methylcyclohexyl)-2-oxo-1,2-dihydro-1,8-naphthyridine-3-carboxamide]	>554	–	–

Source: publication PMC4234427 (Journal of Medicinal Chemistry, 2014)
